Measured values as given in publication PMC8713167, “New Insights into the Structure–Activity Relationship and Neuroprotective Profile of Benzodiazepinone Derivatives of Neurounina-1 as Modulators of the Na^+/Ca^2+ Exchanger Isoforms” (Journal of Medicinal Chemistry, 2021).

Legend:
NCX1 = target: T1, NCX1 (Canis lupus familiaris, UniProt P23685); experiment: High-throughput screening of NCX1 reverse mode, Fluo-4-loaded BHK-NCX1 cells, Na+-free pulse; format: cell-based, dog; details: for Fluo-experiments on BHK-NCX1: NCX1 reverse mode, Na+-free, CTL (100), concentration not given (10 nM and 10 μM screened); for Activity on NCX (SAR discussion, in words): NCX1/NCX3 reverse-mode screening
T1 construct: expressed in transfected cells; host or cells: BHK (baby hamster kidney) cells, stably transfected

NCX3 = target: T2, NCX3 (Rattus norvegicus, UniProt P70549); experiment: High-throughput screening of NCX3 reverse mode, Fluo-4-loaded BHK-NCX3 cells, Na+-free pulse; format: cell-based; details: CTL (100), concentration not given (10 nM and 10 μM screened)
T2 construct: expressed in transfected cells; host or cells: BHK (baby hamster kidney) cells, stably transfected
T2 sequence (P70549 31-927): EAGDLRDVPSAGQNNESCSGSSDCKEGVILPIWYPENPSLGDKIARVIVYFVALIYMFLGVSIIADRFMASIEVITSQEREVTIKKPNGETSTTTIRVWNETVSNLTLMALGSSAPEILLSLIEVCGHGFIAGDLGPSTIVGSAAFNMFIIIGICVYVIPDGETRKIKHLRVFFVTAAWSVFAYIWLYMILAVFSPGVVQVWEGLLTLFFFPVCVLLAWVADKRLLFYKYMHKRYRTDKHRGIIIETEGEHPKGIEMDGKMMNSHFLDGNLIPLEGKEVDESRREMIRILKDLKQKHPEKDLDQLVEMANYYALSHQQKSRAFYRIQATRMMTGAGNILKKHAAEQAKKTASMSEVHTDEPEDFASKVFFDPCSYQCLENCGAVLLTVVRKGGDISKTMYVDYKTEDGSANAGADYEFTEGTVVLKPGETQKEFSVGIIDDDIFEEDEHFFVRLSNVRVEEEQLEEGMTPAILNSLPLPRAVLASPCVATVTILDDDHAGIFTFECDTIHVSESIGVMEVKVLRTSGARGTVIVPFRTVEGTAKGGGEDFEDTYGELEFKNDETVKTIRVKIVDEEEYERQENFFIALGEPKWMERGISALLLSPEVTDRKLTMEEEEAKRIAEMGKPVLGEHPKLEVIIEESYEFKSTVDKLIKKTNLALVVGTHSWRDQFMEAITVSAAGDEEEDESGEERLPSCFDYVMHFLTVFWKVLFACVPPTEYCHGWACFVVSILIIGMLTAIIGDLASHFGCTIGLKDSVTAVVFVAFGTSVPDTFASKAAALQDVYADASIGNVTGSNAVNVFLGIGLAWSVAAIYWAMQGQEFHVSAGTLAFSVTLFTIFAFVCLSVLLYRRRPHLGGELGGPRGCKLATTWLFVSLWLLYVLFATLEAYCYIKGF

Structure (SMILES) | Fluo-experiments on BHK-NCX1 (NCX1) | Fluo-experiments on BHK-NCX3 (NCX3) | Activity on NCX (SAR discussion, in words) (NCX1) | melting point [°C]
O=C(CN1C(=O)CN=C(c2ccccc2)c2cc([N+](=O)[O-])ccc21)N1CCCCC1 [Compound 13, 7-Nitro-1-[2-Oxo-2-(piperidin-1-yl)ethyl]-5-phenyl-1H-benzo[e][1,4]diazepin-2(3H)-one] | 100 | 100 | – | –
CC1CCCN(CCN2C(=O)CN=C(c3ccccc3)c3cc([N+](=O)[O-])ccc32)C1 (stereo not drawn) [Compound 7, 1-[2-(3-Methylpiperidin-1-yl)ethyl]-7-nitro-5-phenyl-1H-benzo[e][1,4]diazepin-2(3H)-one] | 100 | 100 | inactive | –
CC1CCCN(C(=O)CN2C(=O)CN=C(c3ccccc3)c3cc([N+](=O)[O-])ccc32)C1 (stereo not drawn) [Compound 15, 1-3-[(3-Methylpiperidin-1-yl)-2-oxoethyl]-7-nitro-5-phenyl-1H-benzo[e][1,4]-diazepin-2(3H)-one] | 100 | 100 | – | –
O=C1CN=C(c2ccccc2)c2cc([N+](=O)[O-])ccc2N1CCN1CCCCC1 [Compound 5, 7-Nitro-5-phenyl-1-[2-(piperidin-1-yl)ethyl]-1H-benzo[e][1,4]diazepin-2(3H)-one] | 100 | 100 | inactive | –
O=C1CN=C(c2ccccc2)c2cc([N+](=O)[O-])ccc2N1CCn1ccnc1 [Compound 8, 1-[2-(1H-Imidazole-1-yl)ethyl]-7-nitro-5-phenyl-1H-benzo[e][1,4]diazepin-2(3H)-one] | 100 | 100 | complete loss of activity | –
CC1CCCCN1CCN1C(=O)CN=C(c2ccccc2)c2cc([N+](=O)[O-])ccc21 (stereo not drawn) [Compound 6, 1-[2-(2-Methylpiperidin-1-yl)ethyl]-7-nitro-5-phenyl-1H-benzo[e][1,4]diazepin-2(3H)-one] | 100 | 100 | inactive | –
O=C1CN=C(c2ccccc2)c2cc([N+](=O)[O-])ccc2N1CN1CCCCC1 [Compound 3, 7-Nitro-5-phenyl-1-(piperidin-1-ylmethyl)-1H-benzo[e][1,4]diazepin-2(3H)-one] | 100 | 100 | complete loss of activity | –
O=C1CN=C(c2ccccc2)c2cc([N+](=O)[O-])ccc2N1CCN1CCN(c2cccc3ccccc23)CC1 [Compound 11, 1-{2-[4-(Naphthalen-1-yl)piperazin-1-yl]ethyl}-7-nitro-5-phenyl-1H-benzo[e][1,4]diazepin-2(3H)-one] | 100 | 100 | – | –
Cc1nccn1CCN1C(=O)CN=C(c2ccccc2)c2cc([N+](=O)[O-])ccc21 [Compound 9, 1-[2-(2-Methyl-1H-imidazole-1-yl)ethyl]-7-nitro-5-phenyl-1H-benzo[e][1,4]diazepin-2(3H)-one] | 100 | 100 | – | –
Cc1nccn1C(=O)CN1C(=O)CN=C(c2ccccc2)c2cc([N+](=O)[O-])ccc21 [Compound 17, 1-[2-(2-Methyl-1H-imidazole-1-yl)-2-oxoethyl]-7-nitro-5-phenyl-1H-benzo[e][1,4]diazepin-2(3H)-one] | 100 | 100 | – | –
O=C1CN=C(c2ccccc2)c2cc([N+](=O)[O-])ccc2N1CC(=O)n1ccnc1 [Compound 16, 1-[2-(1H-Imidazole-1-yl)-2-oxoethyl]-7-nitro-5-phenyl-1H-benzo[e][1,4]diazepin-2(3H)-one] | 100 | 100 | – | 120 to 121
O=C(CN1C(=O)CN=C(c2ccccc2)c2cc([N+](=O)[O-])ccc21)N1CCN(c2cccc3ccccc23)CC1 [Compound 19, 1-{2-[4-(Naphthalen-1-yl)piperazin-1-yl]-2-oxoethyl}-7-nitro-5-phenyl-1H-benzo[e][1,4]-diazepin-2(3H)-one] | 100 | 100 | – | –
O=C1CN=C(c2ccccc2)c2cc([N+](=O)[O-])ccc2N1CCN1CCN(c2ccccc2)CC1 [Compound 10, 7-Nitro-5-phenyl-1-[2-(4-phenylpiperazin-1-yl)ethyl]-1H-benzo[e][1,4]diazepin-2(3H)-one] | 100 | 100 | – | –
O=C1CN=C(c2ccccc2)c2cc(Cl)ccc2N1CN1CCCC1 [Compound 2, 7-Chloro-5-phenyl-1-(pyrrolidin-1-ylmethyl)-1H-benzo[e][1,4]diazepin-2(3H)-one] | 100 | 100 | inactivity | –
O=C(CN1C(=O)CN=C(c2ccccc2)c2cc([N+](=O)[O-])ccc21)N1CCCC1 [Compound 12, 7-Nitro-1-[2-Oxo-2-(pyrrolidin-1-yl)ethyl]-5-phenyl-1H-benzo[e][1,4]diazepin-2(3H)-one] | 100 | 100 | – | –
O=C(CN1C(=O)CN=C(c2ccccc2)c2cc([N+](=O)[O-])ccc21)N1CCN(c2ccccc2)CC1 [Compound 18, 7-Nitro-1-[2-Oxo-2-(4-phenylpiperazin-1-yl)ethyl]-5-phenyl-1H-benzo[e][1,4]diazepin-2(3H)-one] | 100 | 100 | – | –
